Here are results for four compounds from US20230278972A1, “SUBSTITUTED HALOALKYL SULFONANILIDE HERBICIDES” (FMC Corporation, priority 2020, published 2023).

In one assay the test system is kochia (Bassia scoparia). In words: Test A preemergence, kochia. The class given is in vivo. To be noted: Bassia scoparia, pre-emergence, 240 h, Preemergence; for pest or weed control at 125 g/ha: 125 g ai/ha; for pest or weed control at 500 g/ha: 500 g ai/ha. The method in brief:
(§1)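 Whole-plant herbicidal screen in pots of loam blended with sand. Sprays used a surfactant-containing, non-phytotoxic solvent vehicle. Timing was preemergence soil-directed at planting or postemergence at the one- to two-leaf stage (2–10 cm).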

In assay [1] the test system is barnyardgrass (Echinochloa crus-galli). In words: Test A postemergence, barnyardgrass. The class given is in vivo. The settings on record: Echinochloa crus-galli, post-emergence, 240 h, Postemergence, 0 to 100 scale (0 no effect, 100 complete control); for pest or weed control at 125 g/ha: 125 g ai/ha; for pest or weed control at 500 g/ha: 500 g ai/ha. Summed up: (§2)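 Greenhouse pot test in a loam–sand blend; compounds delivered in a non-phytotoxic solvent carrying a surfactant, applied either as a directed spray to soil at seeding or over seedlings 2 to 10 cm high with one to two leaves.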

Assay [2] has as its system pigweed (Amaranthus retroflexus). In words: Test A postemergence, pigweed. The settings on record: Amaranthus retroflexus, post-emergence, 240 h, Postemergence, 0 to 100 scale (0 no effect, 100 complete control); for pest or weed control at 125 g/ha: 125 g ai/ha; for pest or weed control at 500 g/ha: 500 g ai/ha. In kind it is in vivo. The method in brief: as §1
Assay [3] deals with wheat (Triticum aestivum). In words: Test A postemergence, wheat. In kind it is in vivo. The settings on record: Triticum aestivum, post-emergence, 240 h, Postemergence, 0 to 100 scale (0 no effect, 100 complete control); for plant injury at 125 g/ha: 125 g ai/ha; for plant injury at 500 g/ha: 500 g ai/ha. Summed up:
as §2

Assay [4] deals with ducksalad (Heteranthera limosa). In words: Test B flooded paddy test, ducksalad. The settings on record: 336 h, read-out: Plant response rating, Ducksalad.
Where [5] appears, read: visual injury on 0 to 100 scale (0 no effect, 100 complete control), approximately 10 days, read-out: Kochia plant response rating.
Where [6] appears, read: 0 to 100 scale (0 no effect, 100 complete control), read-out: Plant response rating, Kochia.
Setting [7] is: read-out: Plant response rating, Barnyardgrass.
Where [8] appears, read: visual injury vs untreated controls after approx. 10 days, read-out: Barnyardgrass plant response rating.
Setting [9] is: read-out: Plant response rating, Pigweed.
Where [10] appears, read: visual injury vs untreated controls after approx. 10 days, read-out: Pigweed plant response rating.
The mark [11] stands for this setting: read-out: Plant response rating, Wheat.
The mark [12] stands for this setting: visual injury vs untreated controls after approx. 10 days, read-out: Wheat plant response rating.
Where [13] appears, read: visual injury, 0 to 100 scale (0 no effect, 100 complete control), approx. 10 days, read-out: Plant response rating, Kochia.

Where two headings read alike, the source gives them in different places.

Regarding `Cc1cc(C)c(N(COC(=O)C(C)(C)C)S(=O)(=O)C(F)(F)F)cc1C1=NOC2(CCCCC2)C1` [Compound 159, [[2,4-Dimethyl-5-(1-oxa-2-azaspiro[4.5]dec-2-en-3-yl)phenyl][(trifluoromethyl)sulfonyl]amino]methyl 2,2-dimethylpropanoate], the pest or weed control at 125 g/ha is 40% with kochia (Bassia scoparia) (setting [5]), 30% in assay [1] (setting [7]) and 40% in assay [2] (setting [9]). The pest or weed control at 500 g/ha was found to be 70% in the assay with kochia (Bassia scoparia) (setting [6]), 80% in assay [1] (setting [8]) and 70% in assay [2] (setting [10]). In assay [3] (setting [11]), the plant injury at 125 g/ha is 30%. Further, the plant injury at 500 g/ha in assay [3] (setting [12]) was found to be 50%. The pest or weed control at 250 g/ha in assay [4] was 35%.

For `Cc1c(NS(=O)(=O)C(F)(F)F)cc(C(=O)N2CCOCC2)c(C)c1F` [Compound 190, 1,1,1-Trifluoro-N-[3-fluoro-2,4-dimethyl-5-(4-morpholinylcarbonyl)phenyl]methanesulfonamide], the results for the pest or weed control at 125 g/ha (in the assay with kochia (Bassia scoparia) (setting [13]); in assay [1] (setting [7]); in assay [2] (setting [9])) were 90%, 80% and 70%, respectively. In addition, the pest or weed control at 500 g/ha in the assay on kochia (Bassia scoparia) (setting [6]) was 100%; in assay [1] (setting [8]), 90%; in assay [2] (setting [10]), 100%. The plant injury at 125 g/ha in assay [3] (setting [11]) worked out at 40%. For the same compound, the plant injury at 500 g/ha in assay [3] (setting [12]) was found to be 70%. Also, in assay [4], the pest or weed control at 250 g/ha came to 75%.

For `Cc1cc(C)c(C2=NOC3(CCCC3)C2)cc1NS(=O)(=O)C(F)(F)F` [Compound 207, N-[2,4-Dimethyl-5-(1-oxa-2-azaspiro[4.4]non-2-en-3-yl)phenyl]-1,1,1-trifluoromethanesulfonamide], the pest or weed control at 125 g/ha came out at 90% with kochia (Bassia scoparia) (setting [13]), 60% in assay [1] (setting [7]) and 50% in assay [2] (setting [9]). For the same compound, the values for the pest or weed control at 500 g/ha (in the assay on kochia (Bassia scoparia) (setting [6]); in assay [1] (setting [8]); in assay [2] (setting [10])) were 90%, 80% and 70%, respectively. Moreover, the plant injury at 125 g/ha in assay [3] (setting [11]) came to 60%. Besides, in assay [3] (setting [12]), the plant injury at 500 g/ha was 70%. For the same compound, the pest or weed control at 250 g/ha in assay [4] was found to be 95%.

Consider `Cc1cc(C)c(C(=O)N2CCC(F)(F)CC2)cc1NS(=O)(=O)C(F)(F)F` [Compound 241, N-[5-[(4,4-Difluoro-1-piperidinyl)carbonyl]-2,4-dimethylphenyl]-1,1,1-trifluoromethanesulfonamide], for which the values for the pest or weed control at 125 g/ha (in the assay on kochia (Bassia scoparia) (setting [13]); in assay [1] (setting [7]); in assay [2] (setting [9])) were 70%, 60% and 60%, respectively. Further, the pest or weed control at 500 g/ha in the assay on kochia (Bassia scoparia) (setting [5]) amounted to 100%; in assay [1] (visual injury approx. 10 days, read-out: Plant response rating, Barnyardgrass) it was 90%; in assay [2] (visual injury approx. 10 days, read-out: Plant response rating, Pigweed), 80%. Moreover, in assay [3] (setting [11]), the plant injury at 125 g/ha stood at 30%. The plant injury at 500 g/ha in assay [3] (visual injury approx. 10 days, read-out: Plant response rating, Wheat) was found to be 70%. Besides, the pest or weed control at 250 g/ha in assay [4] turned out to be 85%.
